Laboratory results taken from PubChem BioAssay AID2060617 (Molecular Pharmacology Branch, DTP, NCI, 2025).

Tested on: 485368-065-R4-J2-PDC spheroids with HUVEC/MSC, viability
Assay: Anticancer human tumor 485368-065-R4-J2-PDC patient-derived pancreatic carcinoma cell line growth inhibition [CLK]
Details: for IC50: curve of first compound; for viability, T/C: stronger effect = lower value
Summary of the method: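 Patient-derived tumor cells grown as complex spheroids with HUVEC endothelial cells and mesenchymal stem cells, treated with drug combinations. Concentrations descend in half-log steps from near clinical Cmax, or from 10 microM if Cmax unknown.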

[1] = second compound 0.0316 µM, first compound 0.0316 µM
[2] = second compound 0.0316 µM, first compound 0.1 µM
[3] = second compound 0.0316 µM, first compound 0.316 µM
[4] = second compound 0.0316 µM, first compound 1 µM
[5] = second compound 0.1 µM, first compound 0.0316 µM
[6] = second compound 0.1 µM, first compound 0.1 µM
[7] = second compound 0.1 µM, first compound 0.316 µM
[8] = second compound 0.1 µM, first compound 1 µM
[9] = second compound 0.316 µM, first compound 0.0316 µM
[10] = second compound 0.316 µM, first compound 0.1 µM
[11] = second compound 0.316 µM, first compound 0.316 µM
[12] = second compound 0.316 µM, first compound 1 µM
[13] = second compound 1 µM, first compound 0.0316 µM
[14] = second compound 1 µM, first compound 0.1 µM
[15] = second compound 1 µM, first compound 0.316 µM
[16] = second compound 1 µM, first compound 1 µM
[17] = second compound 3.16 µM, first compound 0.0316 µM
[18] = second compound 3.16 µM, first compound 0.1 µM
[19] = second compound 3.16 µM, first compound 0.316 µM
[20] = second compound 3.16 µM, first compound 1 µM
[21] = second compound 10 µM, first compound 0.0316 µM
[22] = second compound 10 µM, first compound 0.1 µM
[23] = second compound 10 µM, first compound 0.316 µM
[24] = second compound 10 µM, first compound 1 µM
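Also: spheroids exposed to compounds for seven days.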
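For viability, T/C in this document: 100% = DMSO vehicle control wells.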

CCc1c2c(nc3ccc(O)cc13)-c1cc3c(c(=O)n1C2)COC(=O)[C@]3(O)CC + CNC(=O)c1ccc(Nc2nc(OC3CCCC3)c3c(-c4ccc5nc(C)oc5c4)c[nH]c3n2)c(OC)c1
IC50 (second compound 0.0316 µM): 3.69 nM | IC50 (second compound 0.1 µM): < 3.16 nM | IC50 (second compound 0.316 µM): < 3.16 nM | IC50 (second compound 1 µM): < 3.16 nM | IC50 (second compound 3.16 µM): < 3.16 nM | IC50 (second compound 10 µM): < 3.16 nM | viability, T/C (second compound 0.0316 µM, first compound 0.00316 µM): 53.6% | viability, T/C (second compound 0.0316 µM, first compound 0.01 µM): 27% | viability, T/C [1]: 13.1% | viability, T/C [2]: 7.46% | viability, T/C [3]: 10.5% | viability, T/C [4]: 16% | viability, T/C (second compound 0.1 µM, first compound 0.00316 µM): 46.3% | viability, T/C (second compound 0.1 µM, first compound 0.01 µM): 27% | viability, T/C [5]: 12.6% | viability, T/C [6]: 7.47% | viability, T/C [7]: 8.97% | viability, T/C [8]: 17% | viability, T/C (second compound 0.316 µM, first compound 0.00316 µM): 41.9% | viability, T/C (second compound 0.316 µM, first compound 0.01 µM): 20.4% | viability, T/C [9]: 11.7% | viability, T/C [10]: 7.63% | viability, T/C [11]: 9% | viability, T/C [12]: 16.2% | viability, T/C (second compound 1 µM, first compound 0.00316 µM): 25.8% | viability, T/C (second compound 1 µM, first compound 0.01 µM): 13.5% | viability, T/C [13]: 8.98% | viability, T/C [14]: 6.66% | viability, T/C [15]: 10.7% | viability, T/C [16]: 18.1% | viability, T/C (second compound 3.16 µM, first compound 0.00316 µM): 20.9% | viability, T/C (second compound 3.16 µM, first compound 0.01 µM): 11.3% | viability, T/C [17]: 9.77% | viability, T/C [18]: 7.07% | viability, T/C [19]: 11.5% | viability, T/C [20]: 18.9% | viability, T/C (second compound 10 µM, first compound 0.00316 µM): 19.4% | viability, T/C (second compound 10 µM, first compound 0.01 µM): 13.9% | viability, T/C [21]: 7.33% | viability, T/C [22]: 7.37% | viability, T/C [23]: 15.9% | viability, T/C [24]: 20.8%

CC1COCCN1c1cc(C2(S(C)(=N)=O)CC2)nc(-c2ccnc3[nH]ccc23)n1 (centres undefined) + CNC(=O)c1ccc(Nc2nc(OC3CCCC3)c3c(-c4ccc5nc(C)oc5c4)c[nH]c3n2)c(OC)c1
IC50 (second compound 0.0316 µM): > 10000 nM | IC50 (second compound 0.1 µM): > 10000 nM | IC50 (second compound 0.316 µM): > 10000 nM | IC50 (second compound 1 µM): > 10000 nM | IC50 (second compound 3.16 µM): > 10000 nM | IC50 (second compound 10 µM): > 10000 nM | viability, T/C [1]: 82.7% | viability, T/C [2]: 96% | viability, T/C [3]: 102% | viability, T/C [4]: 101% | viability, T/C (second compound 0.0316 µM, first compound 3.16 µM): 99.2% | viability, T/C (second compound 0.0316 µM, first compound 10 µM): 107% | viability, T/C [5]: 91.1% | viability, T/C [6]: 95.1% | viability, T/C [7]: 101% | viability, T/C [8]: 97.6% | viability, T/C (second compound 0.1 µM, first compound 3.16 µM): 102% | viability, T/C (second compound 0.1 µM, first compound 10 µM): 97.4% | viability, T/C [9]: 84.7% | viability, T/C [10]: 85% | viability, T/C [11]: 75.9% | viability, T/C [12]: 89.7% | viability, T/C (second compound 0.316 µM, first compound 3.16 µM): 90.3% | viability, T/C (second compound 0.316 µM, first compound 10 µM): 82% | viability, T/C [13]: 80.3% | viability, T/C [14]: 78% | viability, T/C [15]: 72.6% | viability, T/C [16]: 81.2% | viability, T/C (second compound 1 µM, first compound 3.16 µM): 90.1% | viability, T/C (second compound 1 µM, first compound 10 µM): 73.4% | viability, T/C [17]: 76.3% | viability, T/C [18]: 78.2% | viability, T/C [19]: 68% | viability, T/C [20]: 72.7% | viability, T/C (second compound 3.16 µM, first compound 3.16 µM): 68.7% | viability, T/C (second compound 3.16 µM, first compound 10 µM): 54.1% | viability, T/C [21]: 74% | viability, T/C [22]: 70.6% | viability, T/C [23]: 62.2% | viability, T/C [24]: 71.6% | viability, T/C (second compound 10 µM, first compound 3.16 µM): 69% | viability, T/C (second compound 10 µM, first compound 10 µM): 59.6%
